We go through 6 compounds from paper PMC10224356, “Trisubstituted 1,3,5-Triazines as Histamine H4 Receptor Antagonists with Promising Activity In Vivo” (Molecules, 2023).

Read-outs that look alike come from different tables or passages of the source.

The test system of series [1] is mice. Briefly: Histamine-induced pruritus. In kind it is in vivo. Conditions: 10 mg/kg, 60 min observation (control 62.11 ± 9.4). On the procedure: Intradermal injection of histamine induced scratching bouts in the amount of 62.11 ± 9.4. […].
(§1) The surface (around 2 cm^2) of the mice’s nape was shaved at least 2 days prior to experiments. On the day of the experiment, mice were individually placed in plastic chambers (15 × 15 × 30 cm) and after the 30 min habituation period, they were given an intradermal (i.d.) injection of histamine dihydrochloride (10 µmol/site) or chloroquine (CQ, 200 µg/site), which were dissolved in physiological saline and administrated in the constant volume of 20 μL. Immediately after the injection, scratching (series of movements considered as a single scratching bout) of the injected site by the hind paw was counted for 60 min or 30 min after histamine and CQ administration, respectively. Before pruritogens injection different groups of mice were treated i.p. with vehicle (10 mL/kg, negative control) or the dose–response of investigated compound.
(§2) Figure 9 The effect of compound 6 and reference compound pyrilamine (Pyr) on the number of scratching bouts during 60 min-long observation in histamine-induced pruritus (A) and 30 min-long observation in chloroquine-induced pruritus (B). The tested compound or vehicle (1% solution of Tween 80) was administered intraperitoneally (i.p.) 30 min before the intradermal (i.d.) injection of histamine or chloroquine. The results are presented as bar plots showing the mean ± SEM. Statistical analysis: one-way ANOVA followed by Dunnett’s post hoc test, * p < 0.05, ** p < 0.01, *** p < 0.001, n = 8–10 mice per group.

Series [2] deals with mice. Briefly: Chloroquine-induced pruritus. In kind it is in vivo. Conditions: 10 mg/kg, 30 min observation.
From the text: When comparing the activity of the tested in both used models, it should be noted that the efficacy (higher maximal effect) and potency (lower doses needed to obtain the same result) of the compound were better in histamine-induced pruritus. Nevertheless, compound 6 was also active in histamine-independent itch, which contrasts with the activity of pyrilamine representing a commonly used drug in the treatment of pruritus. […] The wide spectrum of antipruritic activity of compound 6 is very promising, considering that histamine-independent itch is still a crucial clinical problem in pruritus treatment.
as §1, §2

Series [3] deals with T1, human histamine H4 receptor (Homo sapiens, UniProt Q9H3N8).
T1 construct: made in house; host or cells: Sf9 cells (membrane preparations)
T1 sequence (Q9H3N8 whole entry): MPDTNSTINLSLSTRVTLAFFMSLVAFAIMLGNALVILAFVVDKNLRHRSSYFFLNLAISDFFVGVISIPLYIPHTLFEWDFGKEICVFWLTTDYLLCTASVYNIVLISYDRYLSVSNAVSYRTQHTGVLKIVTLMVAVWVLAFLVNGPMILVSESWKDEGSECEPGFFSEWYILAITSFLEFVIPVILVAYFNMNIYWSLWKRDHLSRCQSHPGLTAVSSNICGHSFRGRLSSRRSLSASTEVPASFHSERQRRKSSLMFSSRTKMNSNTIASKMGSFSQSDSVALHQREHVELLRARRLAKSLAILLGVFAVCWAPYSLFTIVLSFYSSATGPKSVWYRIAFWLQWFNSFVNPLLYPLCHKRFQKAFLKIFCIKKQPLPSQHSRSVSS
Conditions: ref 57 (Grosicki et al.); read-out: hH4R Ki; cited from earlier work.

For series [4], the target named is T2, hH4R (Homo sapiens, UniProt Q9H3N8). Briefly: cAMP accumulation assay (LANCE Ultra cAMP, CHO-K1 cells stably expressing hH4R). Type of series: cell-based. On the set-up: expressed in transfected cells. Conditions: for IC50: antagonist mode, forskolin 10 µM, histamine 140 nM, CHO-K1 hH4R cells, read-out: cAMP hH4R IC50 ± SEM; for Kb: calculated from IC50 by Leff–Dougall variant of Cheng–Prusoff equation, read-out: pKb cAMP ± SEM (converted). On the procedure: Intrinsic activity via the Gα subunit was measured using a LANCE Ultra cAMP detection kit and CHO-K1 cells stably expressing hH4R. Adenyl cyclase was stimulated by forskolin (10 µM).
T2 sequence (Q9H3N8 whole entry): as above
Intrinsic activity in G protein-dependent pathway was measured with homogenous TR-FRET immunoassay, using LANCE Ultra cAMP kit and CHO-K1 H4R cell line or γ-irradiated recombinant CHO-K1 H4R cells (all from PerkinElmer). […] If the CHO-K1 H4R cell line was used it had been cultivated in DMEM/F12 10% FBS 400 µg/mL geneticin and passaged three times a week. […] The antagonist activity was measured in a white, opaque, 384-well microplate (PerkinElmer) with a total volume of 20 µL. […] After incubation, 5 µL of europium chelate-labelled cAMP tracer and 5 µl of ULight-labelled anti-cAMP mAb working solutions were added, mixed and incubated for 1 h. TR-FRET signal was read using a microplate reader (PerkinElmer, Waltham, MA, USA).

The target in series [5] is T2, hH4R. The description is as above. In kind it is cell-based. On the set-up: expressed in transfected cells. Conditions: antagonist mode.
Series [6] has as its target T2, hH4R. Briefly: β-arrestin recruitment assay (LiveBLAzer, Tango-H4-bla U2OS cells). In kind it is cell-based. Set-up: expressed in transfected cells; host or cells: Tango-H4-bla U2OS cells. As to conditions: for IC50 / β-arrestin hH4R % of max. Antagonist Activity at 10 µM: antagonist mode; for IC50: histamine 500 nM (EC80), Tango-H4-bla U2OS cells, read-out: β-arrestin hH4R IC50 ± SEM; for Kb: calculated from IC50 by Leff–Dougall variant of Cheng–Prusoff equation, read-out: pKb β-arrestin ± SEM (converted). On the procedure:
Compounds were tested using LiveBLAzer^TM assay and Tango-H4-bla U2OS cells, allowing the estimation of the percentage of β-arrestin recruitment in response to tested treatments.
All used media and reagents except DMSO and tested compounds were purchased from ThermoFisher Scientific, Waltham, MA, USA. DMSO was from CarlRoth (Karlsruhe, Germany) and histamine was from Sigma Aldrich (Darmstadt, Germany). […] The day before the experiment cells were collected from the culture flask with trypsin and seeded in 384 well black-wall, clear-bottom plate (PerkinElmer, Waltham, MA, USA) in concentration 10,000 cells/well in FreeStyle medium. After 24 h of incubation, the cells were checked under the microscope and the dilutions of tested compounds were prepared and added to the wells. In agonist mode compounds were added to the wells and plates were placed in the incubator (HERAcell240, Heraeus, Hanau, Germany) for 16 h. In antagonist mode, first, the compounds were added to the wells, plates were incubated for 30 min, then histamine solution (corresponding to EC80—500 nM) was added and plates were put in the incubator for 16 h. After this time β-lactamase substrate mixture was prepared and added to wells (8 µL/well). Cells were incubated for 2 h at room temperature in the dark then the signal was read using an EnSpire microplate reader (PerkinElmer, Waltham, MA, USA). Drawing of dose-dependent curves and IC50 calculation for compounds were made using GraphPad Prism 6 (GraphPad Software, San Diego, CA, USA).

Series [7] is described as follows: PAMPA assay (blood-brain barrier permeability). In kind it is in vitro ADME. As to conditions: 200 µM, 5 h. The method, then:
This test is a popular method for estimating the possibility of crossing BBB through passive transport. […] Caffeine was used as a standard well-permeable compound.
The Gentest^TM PAMPA Plate System, purchased from Corning (Tewksbury, MA, USA), was used for permeability evaluation. Caffeine (a reference) and the compound tested were dissolved in DMSO (10 mM stocks) and after dilution to 200 μM in PBS (pH 7.4), added to donor wells. Then, after incubation for 5 h at room temperature, concentrations of tested compounds in donor and acceptor wells were estimated by the mass spectra (LC/MS) method as described previously. The UPLC/MS Waters […] TQD system with the TQ Detector (Waters, Milford, CT, USA) was used for this detection. The assay was performed in triplicate. The permeability value (Pe) was calculated using the formula described by Chen et al..

The target of series [8] is T1, human histamine H4 receptor. As to the kind of experiment: [3H]histamine displacement assay, membranes of Sf9 cells expressing hH4R with Gαi2 and Gβ1γ2. In kind it is binding. As to conditions: Sf9 membranes, mean within 95% CI. The method, then:
The affinity of compounds 2–20 for hH4R was evaluated in a binding assay as previously described. [^3H]Histamine was used as a radioligand and hH4R was expressed in Sf9 cells with G protein Gαi2 and Gβ1γ2 subunits. The pharmacological results represented as Ki values are listed in Table 1 (for alicyclic derivatives) and Table 2 (for aliphatic derivatives). […] Results depended on the substituent in the four positions of a triazine (a main structure).
Affinities of all triazine derivatives were determined in a [^3H] histamine (f.c. 10 nM) displacement assay using membrane preparations from Sf9 cells expressing human H4R and co-expressed with Gαi2 and Gβ1γ2 subunits as described previously. Nonspecific binding was determined in the presence of unlabelled JNJ7777120 ([…]).

Regarding `COc1ccc(CN(CCN(C)C)c2ccccn2)cc1` [pyrilamine, reference compound], in series [1], the “Number of scratch bouts, histamine-induced pruritus” value stood at 28.56 ± 3.55 scratch bouts. Also, the “Effect on scratching behaviour, chloroquine-induced pruritus” value in series [2] is given as “did not significantly reduce scratching behaviour”.
For `CN1CCN(c2nc(N)nc(CC3=CCCCC3)n2)CC1` [Compound 8, 4-(Cyclohexenylmethyl)-6-(4-methylpiperazin-1-yl)-1,3,5-triazin-2-amine], the melting point lay within 149 to 153 °C. In series [3], the Ki is 4700 nM. Besides, in series [4], the IC50 came to 743 ± 30 nM and the Kb was 263 nM. The “cAMP hH4R % of max. Antagonist Activity at 10 µM” value (shortened to “cAMP hH4R %”) in series [5] is listed as 98%. In [6], the IC50 worked out at 41 ± 6 nM, the “β-arrestin hH4R % of max. Antagonist Activity at 10 µM” value (“β-arrestin hH4R %” for short) was 102% and the Kb is 6.76 nM.
As for `Cn1c(=O)c2c(ncn2C)n(C)c1=O` [Caffeine], the “Mass Retention (R)” value in [7] and in [7] (listed as caffeine) was 1.54% each time. Further, in series [7] (PBS pH 7.4, permeable if Pe > 1.5 × 10^−6 cm/s), the “Pe (permeability coefficient) ± SD” value is 9.78 ± 1.75 10^−6 cm/s.
The compound `C=CCCc1nc(N)nc(N2CCN(C)CC2)n1` [Compound 16, 4-(But-3-enyl)-6-(4-methylpiperazin-1-yl)-1,3,5-triazin-2-amine] yielded a melting point of 132 to 133 °C. This compound also gave a Ki in [8] of 319 nM. Besides, in [4], the 50% inhibitory concentration (IC50) was determined as 635 ± 123 nM and the Kb was 219 nM. Also, in series [5], the “cAMP hH4R %” value was 104%. Moreover, in series [6], the IC50 turned out to be 146 ± 38 nM, the “β-arrestin hH4R %” value was found to be 94% and the Kb was 23.4 nM.
Regarding `CC(C)CCc1nc(N)nc(N2CCN(C)CC2)n1` [Compound 14, 4-Isopentyl-6-(4-methylpiperazin-1-yl)-1,3,5-triazin-2-amine], the melting point was 123 to 126 °C. The compound also had a Ki in series [8] of 203 nM. For the same compound, in series [4], the concentration for half-maximal inhibition (IC50) is 43 ± 17 nM and the Kb is 13.8 nM. In addition, the “cAMP hH4R %” value in series [5] was determined as 107%. Besides, in series [6], the IC50 came out at 24 ± 3 nM, the “β-arrestin hH4R %” value is 101% and the Kb is 3.89 nM.
Turning to `C=CC(C)Cc1nc(N)nc(N2CCN(C)CC2)n1` (stereo not shown) [Compound 18, 4-(2-Methylbut-3-enyl)-6-(4-methylpiperazin-1-yl)-1,3,5-triazin-2-amine], the melting point is 113 to 115 °C. For the same compound, the affinity in series [8], expressed as Ki, was 262 nM. Also, in [4], the IC50 was 188 ± 45 nM and the Kb is 64.6 nM. Moreover, the “cAMP hH4R %” value in series [5] stood at 104%. In addition, in series [6], the IC50 is 66.6 ± 3 nM, the “β-arrestin hH4R %” value amounted to 101% and the Kb was 11 nM.
